According to PubChem BioAssay (NCI):
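Method: 48-hour compound exposure of cells in 96-well plates, five concentrations, linear interpolation of endpoints. GI50 marks 50% less growth. TGI is the concentration that stops growth completely.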

Assays:
Assay in all cases: DTP human tumour cell line panel, 48 h
786-0 renal = test system: 786-0 renal
A498 renal = test system: A498 renal
A549 NSCLC = test system: A549 NSCLC
ACHN renal = test system: ACHN renal
BT-549 breast = test system: BT-549 breast
CCRF-CEM leukemia = test system: CCRF-CEM leukemia
COLO 205 colon = test system: COLO 205 colon
DU-145 prostate = test system: DU-145 prostate
EKVX NSCLC = test system: EKVX NSCLC
HCC-2998 colon = test system: HCC-2998 colon
HCT-116 colon = test system: HCT-116 colon
HCT-15 colon = test system: HCT-15 colon
HL-60(TB) leukemia = test system: HL-60(TB) leukemia
HOP-62 NSCLC = test system: HOP-62 NSCLC
HOP-92 NSCLC = test system: HOP-92 NSCLC
HS 578T breast = test system: HS 578T breast
HT29 colon = test system: HT29 colon
IGROV1 ovarian = test system: IGROV1 ovarian
K-562 leukemia = test system: K-562 leukemia
KM12 colon = test system: KM12 colon
LOX IMVI melanoma = test system: LOX IMVI melanoma
M14 melanoma = test system: M14 melanoma
MALME-3M melanoma = test system: MALME-3M melanoma
MCF7 breast = test system: MCF7 breast
MDA-MB-231 breast = test system: MDA-MB-231 breast
MDA-MB-435 = test system: MDA-MB-435
MOLT-4 leukemia = test system: MOLT-4 leukemia
NCI-H226 lung = test system: NCI-H226 lung
NCI-H23 lung = test system: NCI-H23 lung
NCI-H460 lung = test system: NCI-H460 lung
NCI-H522 lung = test system: NCI-H522 lung
NCI/ADR-RES ovarian = test system: NCI/ADR-RES ovarian
OVCAR-3 ovarian = test system: OVCAR-3 ovarian
OVCAR-4 ovarian = test system: OVCAR-4 ovarian
OVCAR-5 ovarian = test system: OVCAR-5 ovarian
OVCAR-8 ovarian = test system: OVCAR-8 ovarian
PC-3 prostate = test system: PC-3 prostate
RPMI-8226 leukemia = test system: RPMI-8226 leukemia
RXF 393 renal = test system: RXF 393 renal
SF-268 CNS = test system: SF-268 CNS
SF-295 CNS = test system: SF-295 CNS
SF-539 CNS = test system: SF-539 CNS
SK-MEL-2 melanoma = test system: SK-MEL-2 melanoma
SK-MEL-28 melanoma = test system: SK-MEL-28 melanoma
SK-MEL-5 melanoma = test system: SK-MEL-5 melanoma
SK-OV-3 ovarian = test system: SK-OV-3 ovarian
SN12C renal = test system: SN12C renal
SNB-19 CNS = test system: SNB-19 CNS
SNB-75 CNS = test system: SNB-75 CNS
SR leukemia = test system: SR leukemia
SW-620 colon = test system: SW-620 colon
T-47D breast = test system: T-47D breast
TK-10 renal = test system: TK-10 renal
U251 CNS = test system: U251 CNS
UACC-257 melanoma = test system: UACC-257 melanoma
UACC-62 melanoma = test system: UACC-62 melanoma
UO-31 renal = test system: UO-31 renal

## Nc1n[nH]c2cccc(C#Cc3cccc(NC(=O)c4cccc(C(F)(F)F)c4)c3)c12
786-0 renal
  GI50: 3.03 µM
  TGI: 8.74 µM
A498 renal
  GI50: 2.41 µM
  TGI: 5.57 µM
A549 NSCLC
  GI50: 4.84 µM
  TGI: 18.6 µM
ACHN renal
  GI50: 2.44 µM
  TGI: 9.78 µM
BT-549 breast
  GI50: 3.34 µM
  TGI: 11.1 µM
CCRF-CEM leukemia
  GI50: 2.69 µM
  TGI: 15.9 µM
COLO 205 colon
  GI50: 3.65 µM
  TGI: 15.1 µM
DU-145 prostate
  GI50: 5.69 µM
  TGI: 17.6 µM
EKVX NSCLC
  GI50: 6.2 µM
  TGI: 19.8 µM
HCC-2998 colon
  GI50: 2.43 µM
  TGI: 7.31 µM
HCT-116 colon
  GI50: 0.855 µM
  TGI: 4.61 µM
HCT-15 colon
  GI50: 2.92 µM
  TGI: 13.6 µM
HL-60(TB) leukemia
  GI50: 0.875 µM
  TGI: 4.55 µM
HOP-62 NSCLC
  GI50: 3.41 µM
  TGI: 13.9 µM
HOP-92 NSCLC
  GI50: 1.9 µM
  TGI: 5.24 µM
HS 578T breast
  GI50: 1.96 µM
  TGI: 6.09 µM
HT29 colon
  GI50: 2.98 µM
  TGI: 12.8 µM
IGROV1 ovarian
  GI50: 1.53 µM
  TGI: 4.31 µM
K-562 leukemia
  GI50: 0.19 µM
  TGI: 11.1 µM
KM12 colon
  GI50: 4.52 µM
  TGI: 19.8 µM
LOX IMVI melanoma
  GI50: 1.53 µM
  TGI: 3.41 µM
M14 melanoma
  GI50: 1.88 µM
  TGI: 10 µM
MALME-3M melanoma
  GI50: 0.446 µM
  TGI: 10.9 µM
MCF7 breast
  GI50: 3 µM
  TGI: 15.8 µM
MDA-MB-231 breast
  GI50: 1.5 µM
  TGI: 6.5 µM
MDA-MB-435
  GI50: 3.04 µM
  TGI: 13.7 µM
MOLT-4 leukemia
  GI50: 2.21 µM
  TGI: 13.3 µM
NCI-H226 lung
  GI50: 0.86 µM
  TGI: 20.3 µM
NCI-H23 lung
  GI50: 2.86 µM
  TGI: 15.8 µM
NCI-H460 lung
  GI50: 4.11 µM
  TGI: 15.7 µM
NCI-H522 lung
  GI50: 4.42 µM
  TGI: 18.1 µM
NCI/ADR-RES ovarian
  GI50: 3.91 µM
  TGI: 23.2 µM
OVCAR-3 ovarian
  GI50: 5.07 µM
  TGI: 17.3 µM
OVCAR-4 ovarian
  GI50: 3.67 µM
  TGI: 17.7 µM
OVCAR-5 ovarian
  GI50: 2.21 µM
  TGI: 14 µM
OVCAR-8 ovarian
  GI50: 4.82 µM
  TGI: 16.6 µM
PC-3 prostate
  GI50: 3.96 µM
  TGI: 14.6 µM
RPMI-8226 leukemia
  GI50: 3.44 µM
  TGI: 21.5 µM
RXF 393 renal
  GI50: 1.65 µM
  TGI: 3.97 µM
SF-268 CNS
  GI50: 3.82 µM
  TGI: 16.3 µM
SF-295 CNS
  GI50: 2.68 µM
  TGI: 10.5 µM
SF-539 CNS
  GI50: 1.19 µM
  TGI: 3.47 µM
SK-MEL-2 melanoma
  GI50: 1.36 µM
  TGI: 6.95 µM
SK-MEL-28 melanoma
  GI50: 2.72 µM
  TGI: 12.5 µM
SK-MEL-5 melanoma
  GI50: 4.13 µM
  TGI: 14.8 µM
SK-OV-3 ovarian
  GI50: 3.19 µM
  TGI: 10.2 µM
SN12C renal
  GI50: 4.09 µM
  TGI: 17.3 µM
SNB-19 CNS
  GI50: 6.13 µM
  TGI: 18.5 µM
SNB-75 CNS
  GI50: 2.79 µM
  TGI: 18.6 µM
SR leukemia
  GI50: 3.95 µM
  TGI: 55 µM
SW-620 colon
  GI50: 3.22 µM
  TGI: 19.5 µM
T-47D breast
  GI50: 1.81 µM
  TGI: 8.1 µM
TK-10 renal
  GI50: 5.61 µM
  TGI: 13.7 µM
U251 CNS
  GI50: 5.32 µM
  TGI: 17.2 µM
UACC-257 melanoma
  GI50: 4.3 µM
  TGI: 15.8 µM
UACC-62 melanoma
  GI50: 2.54 µM
  TGI: 11.4 µM
UO-31 renal
  GI50: 2.29 µM
  TGI: 9.45 µM
